Counter-ions that a name gives are not always drawn.
Tests used:
Solubility in water = assay type: physicochemical; conditions: white powder, sodium salt
[1] = system: male mice (SPF1, OF1 strain); assay: Analgesic activity: inhibition of pain reactions (abdominal twistings) after intraperitoneal phenylbenzoquinone, oral administration; assay type: in vivo; conditions: for inhibition in vivo at 16 mg/kg: 16 mg/kg oral; for inhibition in vivo at 32 mg/kg: 32 mg/kg oral; for inhibition in vivo at 64 mg/kg: 64 mg/kg oral; for inhibition in vivo at 256 mg/kg: 256 mg/kg oral; for ED50: read-out: ED50 (50% effective dose), analgesic; for inhibition in vivo at 8 mg/kg: 8 mg/kg oral
Procedure: The products tested are administered orally to batches of 6 male mice (SPF1, OF1 strain) weighing 19-20 g.
1 hour later, 0.3 ml of a 0.02% strength solution of phenylbenzoquinone is injected intraperitoneally into each mouse and, from the 5th to the 10th minute after the latter treatment, the number of pain reactions (abdominal twistings) is counted.
Table V to VIII below give the percentage inhibition of these reactions.

[2] = system: SPF male rats, OFA strain; assay: Anti-inflammatory activity: paw swelling after subcutaneous plantar injection of carraghenine, oral administration; assay type: in vivo; conditions: for inhibition in vivo at 64 mg/kg / inhibition in vivo at 128 mg/kg / inhibition in vivo at 256 mg/kg / ED50 / inhibition in vivo at 16 mg/kg / inhibition in vivo at 32 mg/kg / inhibition in vivo at 512 mg/kg: Rattus norvegicus, po; for inhibition in vivo at 64 mg/kg / inhibition in vivo at 128 mg/kg / inhibition in vivo at 256 mg/kg / inhibition in vivo at 16 mg/kg / inhibition in vivo at 32 mg/kg / inhibition in vivo at 512 mg/kg / percentage reduction in the inflammation: carraghenine; for inhibition in vivo at 64 mg/kg / inhibition in vivo at 128 mg/kg / inhibition in vivo at 256 mg/kg / inhibition in vivo at 16 mg/kg / inhibition in vivo at 32 mg/kg / inhibition in vivo at 512 mg/kg: read-out: percentage reduction in the inflammation; for ED50: read-out: ED50 (50% effective dose), anti-inflammatory; for inhibition in vivo at 16 mg/kg: 16 mg/kg oral; for inhibition in vivo at 512 mg/kg: 512 mg/kg oral
Procedure: Anti-inflammatory activity
The products to be tested are administered orally to batches of 12 SPF male rats, OFA strain, weighing 120-130 g, 2 hours and 30 minutes (1/2 dose each time) before the subcutaneous plantar injection of 0.05 ml of a 1% strength solution of carraghenine. The volume of the back paw which received the phlogogenic agent is measured at regular intervals. The 50% effective dose is calculated at the moment of greatest swelling of the controls.
The results are given in Tables I to IV below, in which the percentage reduction in the inflammation is noted.

[3] = Mus musculus, po, read-out: percentage inhibition of pain reactions
[4] = Mus musculus, po, 128 mg/kg oral, read-out: percentage inhibition of pain reactions
[5] = at the moment of greatest swelling of the controls

Structure (SMILES)	solubility in water (Solubility in water)	inhibition in vivo at 16 mg/kg [1, 3] [%]	inhibition in vivo at 32 mg/kg [1, 3] [%]	inhibition in vivo at 64 mg/kg [1, 3] [%]	inhibition in vivo at 128 mg/kg [1, 4] [%]	inhibition in vivo at 256 mg/kg [1, 3] [%]	ED50 ([1]; Mus musculus, po) [mg/kg]	inhibition in vivo at 64 mg/kg ([2]; 64 mg/kg oral) [%]	inhibition in vivo at 128 mg/kg ([2]; 128 mg/kg oral) [%]	inhibition in vivo at 256 mg/kg ([2]; 256 mg/kg oral) [%]	ED50 [2, 5] [mg/kg]	inhibition in vivo at 8 mg/kg [1, 3] [%]	inhibition in vivo at 16 mg/kg [2] [%]	inhibition in vivo at 32 mg/kg ([2]; 32 mg/kg oral) [%]	inhibition in vivo at 512 mg/kg [2] [%]	also measured
CC(C(=O)O)c1ccc2c(c1)CC(C(C)C)C2 (stereo not shown) [Example 31, Sodium salt of 2-methyl-[2-isopropyl-indanyl-(5)]-acetic acid]	soluble in water															
CC1CC(C)c2cc(C(C)C(=O)O)ccc21 (stereo not shown) [Example 6, Sodium salt of 2-methyl-[1,3-dimethyl-indanyl-(5)]-acetic acid]	soluble in water	28	41	59	78	72	40	16	39	44	> 256					
CC1Cc2ccc(C(C)C(=O)O)cc2C1 (stereo not shown) [Example 15, Sodium salt of 2-methyl-[2-methyl-indanyl-(5)]-acetic acid]	soluble in water	18	68	91			23	27	41	68	160	14	11	20	72	
CC(C(=O)OCCN1CCOCC1)c1ccc2c(c1)CC(C)(C)C2 (stereo not shown) [Example 24, Hydrochloride of the morpholino-ethyl ester of 2-methyl-[2,2-dimethyl-indanyl-(5)]-acetic acid]		24	32	53	97		35	36	50	57	142	0	7	21	73	
CCC(C(=O)O)c1ccc2c(c1)CC(C(C)C)C2 (stereo not shown) [Example 17, 2-Ethyl-[2-isopropyl-indanyl-(5)]-acetic acid]				28		83							13			percentage inhibition of pain reactions ([1]; 128 mg/kg oral, mouse): 70%; inhibition in vivo at 512 mg/kg ([1]; Mus musculus, po, 512 mg/kg oral, read-out: percentage inhibition of pain reactions): 100%; ED50 (50% effective dose), analgesic ([1]; oral, mouse): 100 mg/kg; percentage reduction in the inflammation ([2]; 32 mg/kg oral, rat): 24%; percentage reduction in the inflammation ([2]; 64 mg/kg oral, rat): 30%; percentage reduction in the inflammation ([2]; 128 mg/kg oral, rat): 38%; percentage reduction in the inflammation ([2]; 256 mg/kg oral, rat): 43%; ED50 (50% effective dose), anti-inflammatory ([2]; oral, rat, at the moment of greatest swelling of the controls): > 256 mg/kg
